Assay results taken from article PMC12459020, “Chemical Probes that Target a Dissociative LuxR-Type Quorum Sensing Receptor in Gram-Negative Bacteria” (ACS Chemical Biology, 2025).
“Also recorded” adds a separate entry of the source. Where two headings read alike, the source gives them in different places.

How the values were obtained:
EsaR [1] = molecular target: T1, EsaR (Pantoea stewartii subsp. stewartii, UniProt P54293); assay: cell-based; settings: for EsaR antagonism, in words: competed against OHHL at approx. EC50; for EsaR agonism at 100 μM (bound stated in text): E. coli EsaR reporter
T1 construct: expressed in transfected cells; host or cells: E. coli JLD271 (K12 ΔsdiA), arabinose-induced pJN105-esaR
T1 sequence (P54293 whole entry): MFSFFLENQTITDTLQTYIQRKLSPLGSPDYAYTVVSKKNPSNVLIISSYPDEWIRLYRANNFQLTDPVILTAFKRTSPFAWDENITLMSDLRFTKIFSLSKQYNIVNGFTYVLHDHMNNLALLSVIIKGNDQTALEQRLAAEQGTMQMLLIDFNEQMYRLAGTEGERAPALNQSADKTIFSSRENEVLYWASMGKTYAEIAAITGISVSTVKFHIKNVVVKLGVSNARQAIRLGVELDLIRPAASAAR
From the text: (§1) EsaR transcriptional activation and repression were examined using E. coli and P. stewartii reporters (strains and plasmids listed in Table S1; see Methods section for assay details). […] We constructed reporters in E. coli based on previously reported EsaR reporters (Table S1). Each strain contained an EsaR expression plasmid (pJN105-esaR) and a reporter plasmid with either an EsaR-activated promoter (pesaS) or an EsaR-repressed promoter (pesaR) upstream of luxABCDE or GFP.
(§2) Gibson assembly was used to create all constructs. Plasmid pJN105-esaR was created by amplifying esaR from pAC-esaR and inserting it into pJN105. pesaSlux was created by inserting pesaS, amplified from pPesaR-AC:gfp, into the pCS-pesaRlux backbone. The pesaR promoter was amplified from pCS-pesaRlux and inserted into the pPesaR-AC:gfp backbone to create pesaR:GFP. P. stewartii reporter strains were created by transforming pesaR:GFP or pPesaR-AC:gfp into ESN51 by conjugation using E. coli S17 λpir as the donor strain. See SI for details of E. coli ExpR2 reporter construction.
(§3) Overnight cultures were diluted 1:10 in LB medium with appropriate antibiotics and grown at 37 °C (200 rpm) to an OD600 of 0.22–0.27 before induction with 4 mg mL^–1 arabinose. OD600 was measured by placing 200 μL of culture into a 96-well plate and reading optical density using the BioTek Synergy 2 plate reader. Assays were performed in technical triplicate in clear-bottom, white and clear-bottom, black 96-well microtiter plates (Corning Costar 3903 and 3904) for luminescence and fluorescence reporters, respectively. Compounds were dissolved in DMSO, and 2 μL of this stock, or DMSO as a negative control, was added to each well prior to adding 198 μL of induced culture. Plates were incubated at 37 °C (200 rpm) for 3.5 h. Each well was mixed by pipetting before reading OD600 and either luminescence or fluorescence. Single-point screens were performed with one or two biological replicates, and all dose–response curves were performed in biological triplicate. EC50 values were calculated based on a nonlinear regression of log(concentration) vs response (three parameters) using GraphPad Prism 9 software.

ExpR2 = settings: cited from earlier work
EsaR [2] = molecular target: T1, EsaR; assay: cell-based
From the text: as §1, §2, §3

ExpR1 = settings: cited from earlier work
[3] = 5 µM compound against 5 µM OHHL, negative values indicate potential activators, ref 6 (SI; Palmer et al., 2011)

SMILES: CCCCCCCCCC(=O)NC1CCCC1 [C10-CPA, reference compound]
- EsaR antagonism, in words (EsaR [1]; E. coli EsaR reporters): did not show antagonism; also recorded: None of these compounds antagonized EsaR

SMILES: O=C(Cc1ccc(I)cc1)N[C@H]1CCOC1=O [C10]
- ExpR2 antagonism (percent inhibition) (ExpR2; [3]): 68%
- ExpR2 [%] (agonism, percent activation) (ExpR2; compounds at 200 μM, cellulase activity in P. versatile AC5099, ref Palmer et al., 2011 (main ref 44, SI ref 6)): 19%
- IC50 (ExpR2; previously reported phenotypic reporter data, ref 6 (SI; Palmer et al., 2011)): 0.9 µM
- activation at 100 µM (EsaR [1]; 3.5 h, read-out: EsaR-activated (pesaS) [%] agonism): 7%
- inhibition at 100 µM (EsaR [1]; 3.5 h, read-out: EsaR-activated (pesaS) antagonism): -5%
- activation at 100 µM (EsaR [2]; 3.5 h, read-out: EsaR-repressed (pesaR) [%] agonism): 0.4%
- inhibition at 100 µM (EsaR [2]; 3.5 h, read-out: EsaR-repressed (pesaR) antagonism): 25%
- ExpR1 antagonism (ExpR1; [3]): 73%
- ExpR1 [%] (agonism, activation) (ExpR1; compounds at 200 μM, cellulase activity in P. versatile AC5117, ref Palmer et al., 2011 (main ref 44, SI ref 6)): 6%

SMILES: O=C(CCc1cccc([N+](=O)[O-])c1)N[C@H]1CCOC1=O [E38]
- EC50 (EsaR [1]): ≥ 64 µM

SMILES: O=C(Cc1cccc([N+](=O)[O-])c1)NC1CCCC1 [F18]
- EsaR antagonism, in words (EsaR [1]; E. coli EsaR reporters): None of these compounds antagonized EsaR

SMILES: Cc1ccc(CS(=O)(=O)N[C@H]2CCOC2=O)cc1 [GAF 13]
- EsaR agonism at 100 μM (bound stated in text) (EsaR [1]): ≤ 50%

SMILES: O=C1OCC[C@@H]1NS(=O)(=O)Cc1cccc(Cl)c1 [GAF 33]
- EsaR agonism at 100 μM (bound stated in text) (EsaR [1]): ≤ 50%

SMILES: O=C1OCC[C@@H]1NS(=O)(=O)Cc1cccc(Br)c1 [GAF 41]
- EsaR agonism at 100 μM (bound stated in text) (EsaR [1]): ≤ 50%

SMILES: O=C1OCC[C@@H]1NS(=O)(=O)c1ccc(Cl)c(Cl)c1Cl [GAF 45]
- EC50 (EsaR [1]): 4.7 µM
- EC50 (EsaR [2]): 4.9 µM

SMILES: O=C1OCC[C@@H]1NS(=O)(=O)c1cc(Cl)cc(Cl)c1 [GAF 50]
- EC50 (EsaR [1]): 24 µM
- EC50 (EsaR [2]): 24 µM

SMILES: CC(=O)CC(=O)N[C@H]1CCOC1=O [OBHL, reference compound]
- EC50 (EsaR [2]): 97 µM

SMILES: CCCC(=O)NC1CCCC1 [RN4]
- EsaR antagonism, in words (EsaR [1]; E. coli EsaR reporters): None of these compounds antagonized EsaR

SMILES: O=C(NC1CCCC1)C1CCC1 [RN13]
- EsaR antagonism, in words (EsaR [1]; E. coli EsaR reporters): None of these compounds antagonized EsaR
- EsaR agonism, in words (EsaR [1]; E. coli EsaR reporters, primary screen at 100 μM): moderate agonist

SMILES: O=C(COc1ccc(I)cc1)NC1CCCC1 [RN17]
- EsaR antagonism, in words (EsaR [1]; E. coli EsaR reporters): None of these compounds antagonized EsaR

SMILES: CC(C)CC(=O)NC1CCCC1 [RN20]
- EsaR antagonism, in words (EsaR [1]; E. coli EsaR reporters): None of these compounds antagonized EsaR

SMILES: CCCCCCCCCC(=O)CC(=O)Nc1ccccc1 [V-06–018, reference compound]
- EsaR antagonism, in words (EsaR [1]; E. coli EsaR reporters): inactive as EsaR antagonists
- EsaR antagonism, in words, EsaR-repressed promoter (EsaR [2]; E. coli reporter, competed against OHHL at approx. EC50): inactive as EsaR antagonists
